# From US20230081679A1, “SURFACTANT VESICLES FOR VACCINE FORMULATION, TARGETED DRUG DELIVERY, AND TRANSFECTION” (University of Maryland, College Park, priority 2021, published 2023)
# “And” between values parts separate entries of the source, which are not always exact repeats. Identical values can stand only once. Like-named read-outs stand apart in the source and are kept apart here. {BHQ2} = Black Hole Quencher 2; {FAM} = fluorescein
# Tests used:
# DNase I = DNase I Protection Assay; conditions: 25° C. or 37° C., intact vesicles
# Description: FIG. 10. […] Vesicle-incorporated fluorescently-quenched 20 bp DNA duplexes were subjected to DNase I cleavage at 25° C. (A) or 37° C. (B) before (intact) and after (broken) freeze/thaw cycles to promote vesicle rupturing. […] Variation in overall fluorescent intensity in the ruptured samples reflect the variability in vesicle rupture and reformation during the freeze/thaw process.
# DNase I Protection Assay: Intact DNA duplex loaded vesicles were added to reaction buffer containing 2.5 mM magnesium chloride, 0.5 mM calcium chloride, and 1× PBS. DNase I (Thermo Fisher Scientific, Waltham, Mass.) was added to a final concentration of 0.005 U/μL and the reaction was monitored by fluorescence (excitation at 494 nm, emission 521 nm) collected on SpectraMax M5 Microplate Reader (Molecular Devices, San Jose, Calif.) over 3 h at 25° C. or 37° C. Broken vesicles were prepared by 3 freeze thaw cycles of 10 min at −80° C. and 2 min at RT. Following the freeze thaw procedure, the samples equilibrated at RT for 30 min and were used in the assay as described above.
# [1] = Drug pKa and solubility in buffer; format: physicochemical
# [2] = Conversion of carboplatin in PBS 1×; format: physicochemical; conditions: 40 mM in PBS 1×, 48 h, room temperature
# [3] = saline at 37° C.; cited from earlier work
# [4] = for Second Order Rate Constant k’: 60:40 w/w SDBS:CTAT, 1% w/w total surfactant
# Description: To assess the rate of encapsulated substrate release, dialysis was initially considered. […] The assay was to remove aliquots from SVs-encapsulated formulations at time intervals and re-purify the aliquot by size-exclusion chromatography (SEC). Vesicle fractions elute in the initial fractions while release carbohydrate is retained on the column and elutes in the later fractions. The quantity of carbohydrate released was determined by ^1H-NMR (FIG. 28).
# Using the SEC method, the initial rate of glucose release was analyzed for vesicle encapsulated glucose solutions at varying concentrations. […] Therefore, a simple model with first-order release kinetics across the vesicle membrane (Eq. 1) was used, from which the rate law (Eq. 2) can be derived, where [Sugar]in and [Sugar]out are the sugar concentrations inside and outside the vesicle, respectively.
# The release for each vesicle-encapsulated sugar preparation was monitored for at least two half-lives (monosaccharides) and at least one half-life (disaccharides and maltotriose). The release profile for each substrate was then fit to Eq. 3 by a least squares method, and the first order rate constant k1 was calculated. The reported uncertainties represent the standard deviation in the measured k1 of three separate batches of vesicle-encapsulated sugar.
# The t1/2 was calculated from each k1, and the permeability coefficient (P) was calculated using k1 and the vesicle size (from DLS experiments) according to: […]
# [5] = Encapsulation in catanionic SVs (gel filtration, then NMR or ICP-AES); format: physicochemical
# Description: Vesicles were formed in the presence of several different sugars, purified by gel filtration, and the encapsulated sugar concentration measured by NMR (Table 3).
# Table 6 summarizes the EE and drug concentration achieved with each of the chemotherapeutic agents under the standard SDBS-rich SVs formulation method.
# The gel was flushed with two column-volumes of PBS 1×. Next, 1.0 mL of crude vesicle suspension was loaded onto the column and gravity fed into the gel. 2.0 mL of PBS 1× eluent was then added to the column and the fractions discarded. 1.5 mL of PBS 1× was then added to the column and the fractions collected to yield purified opaque light blue vesicles. The column was cleaned with 2.0 mL of 0.1% Triton X-100 in water followed by two column volumes of PBS 1×.
# [6] = Vesicle radius and PDI by DLS
# Description: To measure the average size of the vesicles, 100 μL of the solution was taken and diluted to 1 mL with water and analyzed using dynamic light scattering (DLS).
# [7] = Encapsulation in catanionic SVs (gel filtration, then NMR or ICP-AES); format: physicochemical; conditions: empty SVs incubated in 4 mM D-maltose solution for three weeks
# MDA-MB-231 = test: Empty vesicles vs. DOX-vesicles on cell lines; format: cell-based; conditions: MDA-MB-231 human breast cancer
# Source text: (§1) Empty vesicles vs. DOX-vesicles. 3 cell lines: MDA-MB-231: human breast cancer; MCF-7: human breast cancer; A549: non-small cell lung cancer.
# A549 = test: Empty vesicles vs. DOX-vesicles on cell lines; format: cell-based; conditions: Homo sapiens; A549 non-small cell lung cancer
# Source text: as §1
# [8] = cited from earlier work
# [9] = drug release from catanionic SVs, PBS 1×
# [10] = chemotherapeutic drugs in SDBS-rich SVs, PBS 1×
# [11] = 250 mM cellobiose instead of 500 mM, PBS 1×
# [12] = sugar vesicles, 250 mM cellobiose, PBS 1×, after 24 h
# [13] = 25° C., PBS 1× pH 7.4, 60:40 w/w SDBS rich vesicles, 500 mM sugar
# [14] = prepared in 500 mM sugar, PBS 1×
# [15] = sugar vesicles, 500 mM sugar, PBS 1×, after 24 h
# [16] = 100 mM glucosamine instead of 500 mM, PBS 1×
# [17] = sugar vesicles, 100 mM glucosamine, PBS 1×, after 24 h
# [18] = 500 mM sugar, deionized water instead of PBS 1×
# [19] = sugar vesicles, deionized water instead of PBS 1×, after 24 h
compound,measurement,setting,value
"20 bp DNA duplexes: fluorescently-quenched 20 bp DNA duplexes (SEQ ID NO:3 and 4), vesicle-incorporated (chain 1 ACCCTACGTATCGGTCAGTC; chain 2 GACTGACCGATACGTAGGGT; chain 1: DNA, 3' {FAM}, backbone and methylation of C not given here; chain 2: DNA, 5' {BHQ2}, backbone and methylation of C not given here)","protection from DNase I cleavage, vesicle-incorporated",DNase I,protected from nuclease digestion
"N.N.O=C([O-])C1(C(=O)[O-])CCC1.[Pt+2] [Carboplatin, carboplatin]",solubility (concentration in buffer),[1],40 mM
same,converted to cisplatin,[2],2%
same,remained unreacted,[2],93%
same,kobs of ligand exchange,[3],7.7e-07 s⁻¹
same,t1/2 of ligand exchange,[3],≈ 10 days
same,leaked out of the vesicles,[4]; at the 48 h mark,over 50%
same,First Order Rate Constant k,[4]; [9],0.039 ± 0.004 h⁻¹
same,fold slower release than cisplatin,[4]; release from SVs,20 fold
same,fold slower release than glucose,[4]; release from SVs,3 fold
same,EE (%),[5]; [10],1.9%
same,"[Drug], mM (in purified vesicles)",[5]; [10],0.5 ± 0.1 mM
same,Vesicle PDI,[6]; drug-loaded catanionic SVs,0.19
same,Vesicle Radius (nm),[6]; drug-loaded catanionic SVs,74 nm
"N.N.[Cl][Pt][Cl] [Cisplatin, cisplatin]",First Order Rate Constant k,[4]; [9],0.78 ± 0.06 h⁻¹
same,EE (%),[5]; [10],2.1%
same,"[Drug], mM (in purified vesicles)",[5]; [10],0.05 ± 0.01 mM
same,Vesicle PDI,[6]; drug-loaded catanionic SVs,0.16
same,Vesicle Radius (nm),[6]; drug-loaded catanionic SVs,76 nm
OC[C@H]1O[C@@H](O[C@H]2[C@H](O)[C@@H](O)[C@H](O)O[C@@H]2CO)[C@H](O)[C@@H](O)[C@@H]1O [D-cellobiose],Second Order Rate Constant k’,"[4]; 25° C., PBS 1×",0.000722 ± 0.00014 M⁻¹ s⁻¹
same,EE (%),[5]; [11],1.2%
same,"[Sugar], mM (in purified vesicles)",[5]; [11],2.0 ± 0.4 mM
same,Vesicle PDI,[6]; [12],0.15
same,Vesicle Radius (nm),[6]; [12],90 nm
O=C[C@H](O)[C@@H](O)[C@@H](O)[C@H](O)CO [D-galactose],First Order Rate Constant k,[4]; [13],0.16 ± 0.02 h⁻¹
same,EE (%),[5]; [14],0.82%
same,"[Sugar], mM (in purified vesicles)",[5]; [14],2.7 ± 0.7 mM
same,Vesicle PDI,[6]; [15],0.20
same,Vesicle Radius (nm),[6]; [15],83 nm
O=S(=O)(O)N[C@H]1C(O)O[C@H](CO)[C@@H](O)[C@@H]1O (stereo partly drawn) [D-glucosamine-2-sulfate],First Order Rate Constant k,[4]; [13],0.29 ± 0.06 h⁻¹
same,EE (%),[5]; [14],1.0%
same,"[Sugar], mM (in purified vesicles)",[5]; [14],3.3 ± 0.7 mM
same,Vesicle PDI,[6]; [15],0.06
same,Vesicle Radius (nm),[6]; [15],69 nm
N[C@H]1C(O)O[C@H](CO)[C@@H](O)[C@@H]1O (stereo partly drawn) [D-glucosamine],First Order Rate Constant k,"[4]; 25° C., PBS 1× pH 7.4, 100 mM sugar concentration",0.11 ± 0.01 h⁻¹
same,EE (%),[5]; [16],3.5%
same,"[Sugar], mM (in purified vesicles)",[5]; [16],2.3 ± 0.2 mM
same,Vesicle PDI,[6]; [17],0.23
same,Vesicle Radius (nm),[6]; [17],78 nm
O=C[C@H](O)[C@@H](O)[C@H](O)[C@H](O)CO [D-glucose],First Order Rate Constant k,[4]; [13],0.12 ± 0.03 h⁻¹
same,First Order Rate Constant k,"[4]; 25° C., in water instead of PBS 1×, 500 mM sugar",0.12 ± 0.05 h⁻¹
same,slope of ln starting concentration vs ln initial release rate,"[4]; vesicles prepared in 0.1, 0.2 and 0.5 M glucose",1.1±0.2
same,EE (%),[5]; [18],0.67%
same,"[Sugar], mM (in purified vesicles)",[5]; [18],2 ± 1 mM
same,EE (%),[5]; [14],1.1%
same,"[Sugar], mM (in purified vesicles)",[5]; [14],3.7 ± 0.8 mM
same,EE,[5]; vesicles prepared in 0.1 M glucose,1.9%
same,Vesicle PDI,[6]; [15],0.17
same,Vesicle Radius (nm),[6]; [15],75 nm
same,Vesicle PDI,[6]; [19],0.40
same,Vesicle Radius (nm),[6]; [19],178 nm
OC[C@H]1O[C@H](O[C@H]2[C@H](O)[C@@H](O)[C@H](O)O[C@@H]2CO)[C@H](O)[C@@H](O)[C@@H]1O [D-maltose],EE,[7],5%
same,maltose trapped by vesicles,[7],0.2 mM
same,Second Order Rate Constant k’,"[4]; 25° C., PBS 1×",0.000333 ± 8.3e-05 M⁻¹ s⁻¹
same,Second Order Rate Constant k’,"[4]; 25° C., PBS 1×, listed as Maltose",0.000333 ± 8.3e-05 M⁻¹ s⁻¹
same,EE (%),[5]; [14],1.2%
same,"[Sugar], mM (in purified vesicles)",[5]; [14],4.1 ± 0.3 mM
same,Vesicle PDI,[6]; [15],0.13
same,Vesicle Radius (nm),[6]; [15],80 nm
O=C[C@@H](O)[C@@H](O)[C@H](O)[C@H](O)CO [D-mannose],First Order Rate Constant k,[4]; [13],0.26 ± 0.06 h⁻¹
same,EE (%),[5]; [14],0.87%
same,"[Sugar], mM (in purified vesicles)",[5]; [14],2.9 ± 0.2 mM
same,Vesicle PDI,[6]; [15],0.18
same,Vesicle Radius (nm),[6]; [15],74 nm
O=C[C@H](O)[C@H](O)[C@H](O)CO [D-ribose],EE (%),[5]; [14],0.084%
same,"[Sugar], mM (in purified vesicles)",[5]; [14],0.28 ± 0.02 mM
same,Vesicle PDI,[6]; [15],0.20
same,Vesicle Radius (nm),[6]; [15],72 nm
OC[C@H]1O[C@@](CO)(O[C@H]2O[C@H](CO)[C@@H](O)[C@H](O)[C@H]2O)[C@@H](O)[C@@H]1O [D-sucrose],Second Order Rate Constant k’,"[4]; 25° C., PBS 1×",0.00186 ± 0.00011 M⁻¹ s⁻¹
same,fold faster leakage than maltose,[4]; second order release from SVs,5.6 fold
same,EE (%),[5]; [14],0.86%
same,"[Sugar], mM (in purified vesicles)",[5]; [14],3.2 ± 0.4 mM
same,Vesicle PDI,[6]; [15],0.12
same,Vesicle Radius (nm),[6]; [15],82 nm
"COc1cccc2c1C(=O)c1c(O)c3c(c(O)c1C2=O)C[C@@](O)(C(=O)CO)C[C@@H]3O[C@H]1C[C@H](N)[C@H](O)[C@H](C)O1 [Doxorubicin, doxorubicin]",IC50,MDA-MB-231,0.06 µg/mL
same,IC50,A549,0.02 µg/mL
same,release from vesicles after 11 days,"[4]; within detection limits, after 11 days",no release
same,EE (%),[5]; [10],61%
same,"[Drug], mM (in purified vesicles)",[5]; [10],0.15 ± 0.02 mM
same,EE (%),"[5]; chemotherapeutic drugs in SDBS-rich SVs, PBS 1×, listed as doxorubicin",60% and 61%
same,Vesicle PDI,[6]; drug-loaded catanionic SVs,0.25
same,Vesicle Radius (nm),[6]; drug-loaded catanionic SVs,91 nm
same,pKa,[8],8.4
"Nc1nc2[nH]cc(CCc3ccc(C(=O)N[C@@H](CCC(=O)O)C(=O)O)cc3)c2c(=O)[nH]1 [Pemetrexed, pemetrexed]",Half-life t1/2,[4],47 ± 4 h
same,First Order Rate Constant k,[4]; [9],0.015 ± 0.001 h⁻¹
same,EE (%),[5]; [10],0.80%
same,"[Drug], mM (in purified vesicles)",[5]; [10],0.45 ± 0.09 mM
same,Vesicle PDI,[6]; drug-loaded catanionic SVs,0.17
same,Vesicle Radius (nm),[6]; drug-loaded catanionic SVs,73 nm
COC1OC(CO)C(O)C(O)C1O [α-D-methylglucoside],First Order Rate Constant k,[4]; [13],3.7 ± 0.5 h⁻¹
same,EE (%),[5]; [14],0.17%
same,"[Sugar], mM (in purified vesicles)",[5]; [14],0.6 ± 0.2 mM
same,Vesicle PDI,[6]; [15],0.19
same,Vesicle Radius (nm),[6]; [15],75 nm
maltotriose,Second Order Rate Constant k’,"[4]; 25° C., PBS 1×",0.00211 ± 0.00022 M⁻¹ s⁻¹
same,EE (%),[5]; [14],0.65%
same,"[Sugar], mM (in purified vesicles)",[5]; [14],2.2 ± 0.2 mM
same,Vesicle PDI,[6]; [15],0.13
same,Vesicle Radius (nm),[6]; [15],95 nm
